The values below come from ChEMBL document CHEMBL1201862, “PubChem BioAssay data set” (2004).

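Cultured in 96-well plates, cells were exposed to test compound for 48 hours across five concentrations. GI50: concentration for 50% inhibition of growth.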 Activity calls are given as the source filed them. No stated cut-off is given here; in the data, active = GI50 up to about 1.1 µM and inactive = higher.

Holding throughout (test): DTP human tumour cell line panel, 48 h
For assay [1], the system named is SNB-75.
The subject of assay [2] is HCT-15.
The test system of assay [3] is SR.
Assay [4] has as its system MDA-N.
The subject of assay [5] is UACC-62.
The subject of assay [6] is HOP-62.
The subject of assay [7] is OVCAR-8.
Assay [8] deals with SW-620.
In assay [9] the test system is MDA-MB-231.
In assay [10] the test system is SNB-19.
Assay [11] has as its system 786-0.
Assay [12] deals with Malme-3M.
Assay [13] has as its system SF-295.
The subject of assay [14] is UO-31.
The subject of assay [15] is NCI-H460.
Assay [16] has as its system OVCAR-5.
The subject of assay [17] is NCI-H226.
The subject of assay [18] is NCI-H522.
The subject of assay [19] is A549.

As usually defined, the GI50 is the concentration at which growth is held to half of that of the control. On to `Nc1ncnc2c1ncn2CCCCC(=O)O`, for which the GI50 in assay [1] is > 100 µM (inactive); in assay [2], more than 100 µM; in assay [3] it was > 100 µM (inactive); in [4] it was > 100 µM (inactive); in assay [5], > 100 µM (inactive); in [6], > 100 µM (inactive). Moreover, the GI50 in assay [7], in assay [8], in assay [9], in [10], in [11] and in assay [12] was > 100 µM (inactive) each time. The GI50 in assay [13], in [14], in [15], in assay [16], in assay [17] and in assay [18] was > 100 µM (inactive) in each case. Also, the GI50 in assay [19] is > 100 µM (inactive).

`COc1ccc2oc(=N)c(C(=O)Nc3ccccc3)cc2c1`: the GI50 in assay [1] was 10.4 µM (inactive); in assay [2] it was 31 µM; in [3] it was 7.11 µM (inactive); in assay [4] it was 18.5 µM (inactive); in assay [6], 15.8 µM (inactive); in assay [7] it was 19.2 µM (inactive). The GI50 in assay [8] is 22 µM (inactive); in [9] it was 23.4 µM (inactive); in assay [10], 25.2 µM (inactive); in assay [11] it was 3.09 µM (inactive); in assay [12], 15.9 µM (inactive); in assay [13], 16 µM (inactive). Also, the GI50 is 45 µM (inactive) in assay [14]; 45.5 µM (inactive) in assay [15]; 36.7 µM (inactive) in assay [16]; 31.1 µM (inactive) in assay [17]; 2.58 µM (inactive) in assay [18]; 34.3 µM (inactive) in assay [19].

Take `CC1(C)CC(=O)C(C(c2cccc(O)c2O)C2C(=O)CC(C)(C)CC2=O)C(=O)C1`: the GI50 in [1] was > 100 µM (inactive); in assay [2], 57.1 µM; in [3] it was 36 µM (inactive); in [4], > 100 µM (inactive); in assay [5] it was > 100 µM (inactive); in assay [6], > 100 µM (inactive). For the same compound, the GI50 was 81.7 µM (inactive) in assay [7]; > 100 µM (inactive) in assay [8]; > 100 µM (inactive) in assay [9]; > 100 µM (inactive) in assay [10]; 52.6 µM (inactive) in [11]; > 100 µM (inactive) in [12]. Besides, the GI50 in assay [13] was > 100 µM (inactive); in assay [15] it was > 100 µM (inactive); in [16], > 100 µM (inactive); in assay [17], > 100 µM (inactive); in assay [18] it was 63.2 µM (inactive); in assay [19] it was > 100 µM (inactive).

Consider `Cc1nn(C(=O)c2ccc(Cl)cc2)c2c1C(c1ccc(O)cc1)SC(=N)N2` (centres undefined), for which the GI50 was > 10 µM (inactive) in [1]; more than 10 µM in assay [2]; > 10 µM (inactive) in [3]; > 10 µM (inactive) in assay [4]; > 10 µM (inactive) in assay [5]; > 10 µM (inactive) in assay [6]. The GI50 in assay [7], in assay [8], in assay [9], in [10], in [11] and in assay [12] was > 10 µM (inactive) each time. Further, the GI50 in assay [13], in assay [15], in [16], in [17], in [18] and in assay [19] was > 10 µM (inactive) in each case.

For the compound `O=C(OCC(OC(=O)c1ccccc1)C1CC(C2(O)CCCCC2)C(=O)O1)c1ccccc1` (centres undefined), the GI50 in assay [1] is 15.7 µM (inactive); in [2], more than 25 µM; in [3], 7.59 µM (inactive); in assay [4] it was > 25 µM (inactive); in assay [5], 0.0462 µM (active); in [6] it was > 25 µM (inactive). Besides, the GI50 in assay [7], in [8], in assay [9], in assay [10], in [11] and in assay [12] was > 25 µM (inactive) in each case. The GI50 in [13] was > 25 µM (inactive); in assay [14], 0.0181 µM (active); in [15], 9.18 µM (inactive); in assay [16], > 25 µM (inactive); in [17], > 25 µM (inactive); in assay [18], > 25 µM (inactive). Moreover, the GI50 in [19] was > 25 µM (inactive).

For the compound `CN(C)CCNC(=O)c1cccc2c(NCCN(C)C)c3ccccc3nc12`, the GI50 was 5.06 µM (inactive) in assay [1]; 3.63 µM in assay [2]; 0.982 µM (active) in [3]; 3.15 µM (inactive) in assay [4]; 4.55 µM (inactive) in assay [5]; 3.19 µM (inactive) in [6]. Further, the GI50 in [7] was 3.19 µM (inactive); in assay [8], 2.33 µM (inactive); in [9], 2 µM (inactive); in assay [10] it was 3.24 µM (inactive); in [11], 1.7 µM (inactive); in assay [12] it was 3.85 µM (inactive). Further, the GI50 in [13] is 4.93 µM (inactive); in assay [14] it was 2.92 µM (inactive); in [15], 1.37 µM (inactive); in assay [16], 2.89 µM (inactive); in assay [17] it was 1.37 µM (inactive); in assay [18] it was 1.37 µM (inactive). Further, in assay [19], the GI50 is 1.91 µM (inactive).

In the case of `O=C(O)c1ccccc1Sc1ccc(C=C2NC(=S)N(c3ccccc3)C2=O)s1`, the GI50 in [1] is > 100 µM (inactive); in assay [2] it was more than 100 µM; in [3] it was 29 µM (inactive); in [4], > 100 µM (inactive); in assay [5] it was > 100 µM (inactive); in [6], > 100 µM (inactive). Further, the GI50 in assay [7] was > 100 µM (inactive); in assay [8], > 100 µM (inactive); in assay [9] it was > 100 µM (inactive); in assay [10] it was > 100 µM (inactive); in [11], 18.8 µM (inactive); in [12] it was > 100 µM (inactive). Moreover, the GI50 was > 100 µM (inactive) in [13]; 78.7 µM (inactive) in [14]; > 100 µM (inactive) in assay [15]; > 100 µM (inactive) in assay [16]; > 100 µM (inactive) in [17]; 21.4 µM (inactive) in assay [18].

Take `O=C1c2c(Br)sc(Br)c2[C@H]2OC(=S)N[C@@H]12`: the GI50 in assay [1] is 16.1 µM (inactive); in assay [2], 1.88 µM; in assay [3], 1.67 µM (inactive); in assay [4] it was 5.04 µM (inactive); in assay [5], 11.8 µM (inactive); in [6], 13.5 µM (inactive). The GI50 in assay [7] is 3.5 µM (inactive); in assay [8], 2.43 µM (inactive); in assay [9], 12.1 µM (inactive); in [10] it was 15.2 µM (inactive); in [11] it was 11.3 µM (inactive); in [12], 3.73 µM (inactive). Further, the GI50 in assay [13] is 15.2 µM (inactive); in [14], 1.75 µM (inactive); in assay [15], 16.6 µM (inactive); in assay [16] it was 17.1 µM (inactive); in assay [17] it was 17.1 µM (inactive); in [18], 1.69 µM (inactive). In assay [19], the GI50 was 17.1 µM (inactive).

Regarding `c1csc(-c2csc(-c3ccsc3)c2)c1`, the GI50 was > 92 µM (inactive) in assay [1]; more than 100 µM in assay [2]; 97.3 µM (inactive) in [3]; > 100 µM (inactive) in [4]; > 100 µM (inactive) in [5]; > 100 µM (inactive) in assay [6]. In addition, the GI50 is > 100 µM (inactive) in assay [7]; > 100 µM (inactive) in assay [8]; > 100 µM (inactive) in [9]; > 100 µM (inactive) in assay [10]; > 100 µM (inactive) in assay [11]; 56.4 µM (inactive) in assay [12]. Also, the GI50 is > 100 µM (inactive) in [13]; > 70.1 µM (inactive) in [14]; > 100 µM (inactive) in [15]; > 100 µM (inactive) in [16]; > 57.5 µM (inactive) in [17]; 61.5 µM (inactive) in assay [18]. For the same compound, the GI50 in [19] was 99.5 µM (inactive).

On to `COc1ccccc1NCc1cccc2c(=O)c3ccc(Cl)cc3oc12`, for which the GI50 is 28 µM (inactive) in assay [1]; more than 100 µM in assay [2]; 83.4 µM (inactive) in assay [3]; 93.8 µM (inactive) in [4]; > 100 µM (inactive) in [5]; > 100 µM (inactive) in assay [6]. The GI50 was > 100 µM (inactive) in assay [7]; 76.9 µM (inactive) in assay [8]; > 100 µM (inactive) in [9]; 92.7 µM (inactive) in [10]; > 100 µM (inactive) in [11]; 34.7 µM (inactive) in assay [12]. Moreover, the GI50 in assay [13] is > 100 µM (inactive); in assay [14] it was 95.9 µM (inactive); in assay [16], > 100 µM (inactive); in [17], > 100 µM (inactive); in [18], > 100 µM (inactive); in [19], 78.3 µM (inactive).

With `COc1ccc2c(-c3csc(-c4c[nH]c5ccccc45)n3)c[nH]c2c1`, the GI50 in [1] was 22 µM (inactive); in assay [2] it was 1.45 µM; in assay [3], 1.56 µM (inactive); in assay [4] it was 8.73 µM (inactive); in assay [5], 11.5 µM (inactive); in [6], 16.8 µM (inactive). In addition, the GI50 in [7] is 7.85 µM (inactive); in assay [8], 6.92 µM (inactive); in assay [9] it was 5.2 µM (inactive); in assay [10] it was 13.2 µM (inactive); in assay [11], 5.53 µM (inactive); in assay [12], 4.95 µM (inactive). Besides, the GI50 in assay [13] was 9.64 µM (inactive); in assay [14] it was 5.9 µM (inactive); in [15], 2.29 µM (inactive); in assay [16], 7.8 µM (inactive); in [17], 9.4 µM (inactive); in [18], 4.04 µM (inactive). In addition, the GI50 in [19] was 4.98 µM (inactive).
